From patent publication US9873724B2, “Pro-angiogenic peptides and peptide conjugates” (Yissum Research Development Company of the Hebrew …, priority 2013, dated 2018) come the findings set out here.

“And” between values parts separate entries of the source, which are not always exact repeats. Identical values can stand only once. Square brackets hold non-standard residues; d marks the D form. * marks the point of attachment. Myristoyl = CCCCCCCCCCCCCC(=O)*; Nle = CCCC[C@H](N)C(=O)O

Experiment [1] deals with C57BL mice, polymicrobial septic mouse model. Description: In-vivo septic shock model (cecum ligation and puncture). To be noted: 20 mg/Kg s.c. once a day for 5 days; FIG. 5. How it is done: The polymicrobial septic mouse model of severe sepsis (Belikoff et al. The Journal of Immunology, 2011, 186: 2444-2453), was induced in wild-type (WT) C57BL mice using cecum ligation and puncture (CLP) approach. In summary, mice were anesthetized, a 1.5-cm, longitudinal incision in the lower right quadrant of the abdomen was performed and the cecum was exposed. The distal two third of the cecum was ligated with 4-0 silk suture and punctured doubly with an 18-gauge needle. The cecum was then replaced into the peritoneal cavity and the incision was closed with surgical staples. After that, the mice were resuscitated with sterile saline injected subcutaneously and allowed free access to food and water after awaking.
Following this procedure, mice were then injected s.c. once a day, for 5 days, with either vehicle or with 20 mg/Kg of GPS-725.017 (SEQ ID NO: 12).

The subject of experiment [2] is Mice/Balb/c, hind limb ischemia model. In words: Mouse hind limb ischemia/angiogenesis model. In kind it is in vivo. From the text: The object of this study was to determine whether administration of the test items, peptides AB-017 (SEQ ID NO: 12) and 725-106 (positive control, SEQ ID NO: 2) can enhance angiogenesis, subsequently inducing clinical and motor function improvement in a hind limb ischemia model. The principle of the test is based on changes in perfusion rate, clinical signs and histological parameters (necrosis) following administration of the test compounds.
Each tested group included 4-7 mice per group. Intraperitoneal (i.p) injection is the preferred route of administration of the test items in this model and DMSO/PEG is used as vehicle to prepare the test item solution.
Tested peptides were dissolved in 100% DMSO. Thereafter Polyethylene glycol (PEG) 400 is added to the solution. Sterile water was used to dilute to a final concentration of 0.5% DMSO/10% PEG 400/H2O to result 2 mg/ml. The solution is prepared and divided into marked aliquots and stored at −70° C.
Species/Strain: Mice/Balb/c male˜8 weeks
Animals were housed under standard laboratory conditions, air conditioned and filtered (HEPA F6/6) with adequate fresh air supply (31 air changes/hour). Animals were kept in a climate controlled environment. Temperatures range is between 20-24° C. and RH is between 30-70% with 12 hours light and 12 hours dark cycle. Animals were housed in polyethylene cages (7/cage) measuring 35×30×15 cm, with stainless steel top grill facilitating pelleted food and drinking water in plastic bottle; bedding: steam sterilized clean paddy husk. Bedding material is changed along with the cage at least twice a week. Diet: Animals are fed ad libitum a commercial rodent diet (Teklad Certified Global 18% Protein Diet cat #: 106S8216). Animals have free access to drinking water obtained from the municipality supply. Surgical Procedure: Anesthesia: Isoflurane 1.5-3% in a mixture of O2/N2O, under spontaneous respiration. All four limbs of the animal were taped down in order to facilitate the animal for surgery. Both hind legs of the animals are shaved and disinfected. On the operated leg, the right leg in all animals, an incision was made from the inguinal area to the proximity of the knee. The femoral vein/artery/nerve were exposed. The artery is dissected free from the vein, nerve and surrounding fascia. Distal to its bifurcation with the profound femoral artery, using 6-0 silk suture the artery is ligated twice, and thereafter transected between these two points (see prox-A-group model appendix I). The surgical wound is closed with 6-0 silk and the mouse is returned to its cage. The left leg is untreated control in all animals. Exclusion criteria: Only mice, whose mean flux measurement post surgery is […] and ≦50% of the pre surgical measurement, are incorporated into the study. Mice whose mean flux measurement post surgery out of this range were excluded from the study.
[formula] Drug administration: All animals were dosed by IP administration at a dose volume of 10 ml/kg.
Tests and Evaluation: Body weight: Body weights were measured prior to surgery, prior to each dosing, and prior to necropsy. Blood flow measurement: Using a Laser Doppler apparatus (Perimed PeriScan PIM II System, Technical manual available at test facility) Blood flow was measured (operated leg & control leg) while the legs are in their natural resting position at the following time points: Before surgery (after shaving) & Post surgery (Day 0); Day 1; Day 8; Day 15; Day 22; and Day 29. Each time point for each mouse consists of three measurements. Blood flow was measured, additionally, in first 10 animals at Pre before shaving. […]

With “Myr-Gly-Nle-Arg-Pro-Tyr-NH2 (Myristoyl-G[Nle]RPY-NH2; SMILES CCCCCCCCCCCCCC(=O)NCC(=O)N[C@@H](CCCC)C(=O)N[C@@H](CCCNC(=N)N)C(=O)N1CCC[C@H]1C(=O)N[C@@H](Cc1ccc(O)cc1)C(N)=O) [AB-017]”, the “rescue from death in septic-shock model” value in experiment [1] is recorded as “rescue mice from death”. Further, in experiment [2] (20 mg/kg IP twice weekly for 4 weeks, vs vehicle control and 725-106), the “perfusion, leg function and leg necrosis (in words)” value is given as “significant improvement of the ischemic leg”. For the same substance, the “Functional evaluation at day 15 (individual mouse)” value in experiment [2] (20 mg/kg IP twice weekly, function score 0 (flexing the toes) to 3 (dragging of foot), one value per mouse, listed as AB-107) was 3.0 (2×) and 2.0 and 0.0 (4×). Also, the “Hind limb ischemia evaluation at day 15, Average” value in experiment [2] (20 mg/kg IP twice weekly, group average of ischemic score) is 0.7. In addition, the “Hind limb ischemia evaluation at day 15 (individual mouse)” value in experiment [2] (20 mg/kg IP twice weekly, ischemic score 0 (absence of necrosis) to 4 (total hind-limb loss), one value per mouse, listed as AB-107) was 2.0 (2×) and 0.0 (4×) and 1.0.
